One assay relates to r(CUG)12-MBNL1 complex. Nature of the assay: Inhibition of the r(CUG)12-MBNL1 complex measured by TR-FRET. The class given is biochemical. The note with it: 80 nM RNA, 60 nM MBNL1-His6. (In general: Time-resolved FRET reads energy transfer from a long-lived donor to a nearby acceptor.)
For assay [1], the system named is MBNL1 exon 5 inclusion in DM1 myotubes. Nature of the assay: Myotube splicing rescue assay (MBNL1 exon 5 inclusion). It counts as cell-based, human. The note with it: 48-hour incubation.

As a reminder, the IC50 is the concentration that inhibits the measured activity by half. Read a high IC50 as weaker potency in that assay. As to `CN(C)CCCOc1ccc2nc(-c3ccc(-c4nc5ccc(C(=O)OCCN(C)C)cc5[nH]4)cc3)[nH]c2c1` [Compound 266], the IC50 with r(CUG)12-MBNL1 complex (Table M) was 10.7 µM. For the same compound, the “MBNL1 % splicing rescue at 10 μM” value in assay [1] is reported as −13.1%.

In the case of `CN(C)CCNS(=O)(=O)c1ccc2nc(-c3ccc(-c4nc5ccc(S(=O)(=O)NCCN(C)C)cc5[nH]4)cc3)[nH]c2c1` [Compound 275, 2,2′-(1,4-phenylene)bis(N-(2-(dimethylamino)ethyl)-1H-benzo[d]imidazole-6-sulfonamide)], the IC50 in the assay on r(CUG)12-MBNL1 complex (Table M) was 24.3 µM. Further, the “MBNL1 % splicing rescue at 10 μM” value in assay [1] is −6.5%.

In the assay with r(CUG)12-MBNL1 complex (Table M), `C#CCCCCN(C)CCNC(=O)c1ccc(-c2nc3cc(-c4ccc5[nH]c(-c6ccc(OCCCN(C)C)cc6)nc5c4)ccc3[nH]2)cc1` [Compound 403] registered a 50% inhibitory concentration (IC50) of 5.6 µM. The “MBNL1 % splicing rescue at 10 μM” value in assay [1] worked out at 90.5%.

`CN1CCC(CNC(=O)c2ccc(-c3nc4cc(-c5ccc6[nH]c(-c7ccc(C(=O)NCC8CCN(C)CC8)cc7)nc6c5)ccc4[nH]3)cc2)CC1` [Compound 340]: half-maximal inhibition with r(CUG)12-MBNL1 complex (Table M) (IC50) required 6.17 µM. For the same compound, in assay [1], the “MBNL1 % splicing rescue at 1 μM” value is given as −3.4% and the “MBNL1 % splicing rescue at 10 μM” value is given as −0.4%.

For the compound `CCN(CC)CCOc1ccc(-c2nc3cc(-c4ccc5[nH]c(-c6ccc(OCCN(CC)CC)cc6)nc5c4)ccc3[nH]2)cc1` [Compound 353], in the assay on r(CUG)12-MBNL1 complex (Table M), the IC50 came to 13.3 µM. For the same compound, the “MBNL1 % splicing rescue at 1 μM” value in assay [1] is 7.5%.

As for `N=C(N)CCCOc1ccc2nc(-c3ccc(-c4nc5ccc(OCCCC(=N)N)cc5[nH]4)cc3)[nH]c2c1` [Compound 297], the IC50 in the assay on r(CUG)12-MBNL1 complex (Table M) came out at 9.7 µM. Also, the “MBNL1 % splicing rescue at 10 μM” value in assay [1] was −4.4%.

In the assay on r(CUG)12-MBNL1 complex (Table L), `O=C(NCCN1CCCCC1)c1ccc2nc(-c3ccc(-c4nc5ccc(C(=O)NCCN6CCNCC6)cc5[nH]4)cc3)[nH]c2c1` [Compound 126, N-(2-(piperazin-1-yl)ethyl)-2-(4-(6-((2-(piperidin-1-yl)ethyl)carbamoyl)-1H-benzo[d]imidazol-2-yl)phenyl)-1H-benzo[d]imidazole-6-carboxamide] came in with an IC50 of 9.5 µM. In assay [1], the “MBNL1 % splicing rescue at 1 μM” value amounted to 16.6% and the “MBNL1 % splicing rescue at 10 μM” value stood at 29.6%.

Turning to `CN(C)CCCOc1ccc2nc(-c3ccc(-c4nc5ccc(OCCCN(C)C)cc5[nH]4)c(C#N)c3)[nH]c2c1` [Compound 268, 2,5-bis(6-(3-(dimethylamino)propoxy)-1H-benzo[d]imidazol-2-yl)benzonitrile], it took 9.6 µM to reach half-maximal inhibition with r(CUG)12-MBNL1 complex (Table M) (IC50). In assay [1], the “MBNL1 % splicing rescue at 10 μM” value came out at 73.6%.

Regarding `CCOc1cc(-c2nc3cc(OCCCN(C)C)ccc3[nH]2)c(OCC)cc1-c1nc2cc(OCCCN(C)C)ccc2[nH]1` [Compound 314, (3-[[2-(4-[5-[3-(dimethylamino)propoxy]-1H-1,3-benzodiazol-2-yl]-2,5-diethoxyphenyl)-1H-1,3-benzodiazol-5-yl]oxy]propyl)dimethylamine], half-maximal inhibition in the assay on r(CUG)12-MBNL1 complex (Table M) (IC50) required 19.8 µM. Moreover, in assay [1], the “MBNL1 % splicing rescue at 10 μM” value was 22.5%.

Turning to `CC(C)N(CCNC(=O)c1ccc2nc(-c3ccc(-c4nc5ccc(C(=O)NCCN(C(C)C)C(C)C)cc5[nH]4)cc3)[nH]c2c1)C(C)C` [Compound 34], in the assay on r(CUG)12-MBNL1 complex (Table L), half-maximal inhibition (IC50) was put at 14.5 µM. In addition, the “MBNL1 % splicing rescue at 1 μM” value in assay [1] is given as 20.8%.

In the assay with r(CUG)12-MBNL1 complex (Table M), `CN1CCC[C@H]1COc1ccc(-c2nc3cc(-c4ccc5[nH]c(-c6ccc(O)cc6)nc5c4)ccc3[nH]2)cc1` [Compound 357] gave an IC50 of 15.1 µM. Also, in assay [1], the “MBNL1 % splicing rescue at 1 μM” value is given as 1.1% and the “MBNL1 % splicing rescue at 10 μM” value was 66.0%.

In the assay on r(CUG)12-MBNL1 complex (Table M), `CN(C)CCCOc1ccc2nc(-c3ccc(-c4nc5ccc(OCCCN(C)C)cc5[nH]4)c(O)c3)[nH]c2c1` [Compound 256, 2,5-bis(6-(3-(dimethylamino)propoxy)-1H-benzo[d]imidazol-2-yl)phenol] had an IC50 of 10.7 µM. In assay [1], the “MBNL1 % splicing rescue at 10 μM” value was 90.6%.

As for `C[C@@H](NC(=O)CNCCCn1cc(CCCCN(C)CCNC(=O)c2ccc(-c3nc4cc(-c5ccc6[nH]c(-c7ccc(C(=O)NCCN(C)C)cc7)nc6c5)ccc4[nH]3)cc2)nn1)C(=O)N[C@H](C)C(=O)N[C@H](C)C(=O)N[C@H](C)C(=O)N(CCCn1cc(CCCCN(C)CCNC(=O)c2ccc(-c3nc4cc(-c5ccc6[nH]c(-c7ccc(C(=O)NCCN(C)C)cc7)nc6c5)ccc4[nH]3)cc2)nn1)CC(N)=O` [Compound 460], the IC50 in the assay on r(CUG)12-MBNL1 complex (Table M) stood at 1.3 µM. Also, the “MBNL1 % splicing rescue at 5 μM” value in assay [1] (5 μM) is reported as −21.0%.

In the case of `CN(CC(=O)NCCN1CCN(CCNC(=O)c2ccc3nc(-c4ccc(-c5nc6ccc(C(=O)NCCN7CCCCC7)cc6[nH]5)cc4)[nH]c3c2)CC1)CC(=O)NCCN1CCN(CCNC(=O)c2ccc3nc(-c4ccc(-c5nc6ccc(C(=O)NCCN7CCCCC7)cc6[nH]5)cc4)[nH]c3c2)CC1` [Compound 405], the “MBNL1 % splicing rescue at 10 μM” value in assay [1] is listed as −2.5%.

For the compound `C#CCCCCN(C)CCNC(=O)CCCOc1ccc2[nH]c(-c3ccc(-c4nc5cc(OCCCN(C)C)ccc5[nH]4)cc3)nc2c1` [Compound 320], in the assay with r(CUG)12-MBNL1 complex (Table M), the IC50 stood at 16.7 µM. The “MBNL1 % splicing rescue at 10 μM” value in assay [1] worked out at 88.2%.

In turn, `CN(C)CCCOc1ccc2nc(-c3ccc(-c4nc5ccc(OCCCN(C)C)cc5[nH]4)c(Cl)c3)[nH]c2c1` [Compound 257, 3,3′-((2,2′-(2-chloro-1,4-phenylene)bis(1H-benzo[d]imidazole-6,2-diyl))bis(oxy))bis(N,N-dimethylpropan-1-amine)] registered an IC50 with r(CUG)12-MBNL1 complex (Table M) of 24.6 µM. In assay [1], the “MBNL1 % splicing rescue at 10 μM” value was found to be 92.1%.

Compound `COc1cc(-c2nc3ccc(C(=O)OCCN(C)C)cc3[nH]2)c(OC)cc1-c1nc2ccc(C(=O)OCCN(C)C)cc2[nH]1` [Compound 269, bis(2-(dimethylamino)ethyl) 2,2′-(2,5-dimethoxy-1,4-phenylene)bis(1H-benzo[d]imidazole-6-carboxylate)] showed a half-inhibitory concentration (IC50) with r(CUG)12-MBNL1 complex (Table M) of 3.11 µM. The “MBNL1 % splicing rescue at 10 μM” value in assay [1] was found to be 55.6%.

Compound `CN1CCN(CCNC(=O)c2ccc3nc(-c4ccc(-c5nc6ccc(C(=O)NCCN7CCCCC7)cc6[nH]5)cc4)[nH]c3c2)CC1` [Compound 44, N-(2-(4-methylpiperazin-1-yl)ethyl)-2-(4-(6-((2-(piperidin-1-yl)ethyl)carbamoyl)-1H-benzo[d]imidazol-2-yl)phenyl)-1H-benzo[d]imidazole-6-carboxamide] showed an IC50 in the assay with r(CUG)12-MBNL1 complex (Table L) of 11.9 µM. Further, in assay [1], the “MBNL1 % splicing rescue at 1 μM” value turned out to be 6.1% and the “MBNL1 % splicing rescue at 10 μM” value is listed as 16.4%.

In the case of `CN(C)CCCOc1ccc2nc(-c3ccc(-c4nc5ccc(OCCCN(C)C)cc5[nH]4)c4c3OCO4)[nH]c2c1` [Compound 305], in the assay on r(CUG)12-MBNL1 complex (Table M), the IC50 is 7.6 µM. Also, in assay [1], the “MBNL1 % splicing rescue at 10 μM” value amounted to 58.8%.

For `O=C(NCCN1CCCCC1)c1ccc2nc(-c3ccc(-c4nc5ccc(C(=O)NCCN6CCCCC6)cc5[nH]4)c(F)c3)[nH]c2c1` [Compound 174], in the assay on r(CUG)12-MBNL1 complex (Table M), 4.32 µM corresponded to half-maximal inhibition (IC50). In addition, in assay [1], the “MBNL1 % splicing rescue at 1 μM” value is 5.2% and the “MBNL1 % splicing rescue at 10 μM” value came out at 1.9%.

In the assay with r(CUG)12-MBNL1 complex (Table M), `CN(C)CCCSc1ccc2nc(-c3ccc(-c4nc5ccc(SCCCN(C)C)cc5[nH]4)c4c3OCO4)[nH]c2c1` [Compound 306] had an IC50 of 12.1 µM. Besides, the “MBNL1 % splicing rescue at 10 μM” value in assay [1] came to 11.7%.

The compound `COc1cc(-c2nc3ccc(OCCCN(C)C)cc3[nH]2)ccc1-c1nc2ccc(OCCCN(C)C)cc2[nH]1` [Compound 293] returned a half-inhibitory concentration (IC50) in the assay on r(CUG)12-MBNL1 complex (Table M) of 18.2 µM. The “MBNL1 % splicing rescue at 10 μM” value in assay [1] was 71.0%.

In the case of `CN(C)CCNC(=O)c1ccc2nc(-c3ccc4cc(-c5nc6ccc(C(=O)NCCN(C)C)cc6[nH]5)ccc4c3)[nH]c2c1` [Compound 462], the “MBNL1 % splicing rescue at 10 μM” value in assay [1] is reported as −2.7%.

`O=C(NCCN1CCCCC1)c1ccc2nc(-c3ccc(-c4nc5ccc(C(=O)NCCN6CCCCC6)cc5[nH]4)cc3)[nH]c2c1` [Compound 41, 2,2′-(1,4-phenylene)bis(N-(2-(piperidin-1-yl)ethyl)-1H-benzo[d]imidazole-6-carboxamide)] yielded an IC50 in the assay on r(CUG)12-MBNL1 complex (Table L) of 6.6 µM. For the same compound, in assay [1], the “MBNL1 % splicing rescue at 1 μM” value was 43.7% and the “MBNL1 % splicing rescue at 10 μM” value is 59.1%.

Take `CN1C(C)(C)CC(Oc2ccc3nc(-c4ccc(-c5nc6ccc(OC7CC(C)(C)N(C)C(C)(C)C7)cc6[nH]5)cc4)[nH]c3c2)CC1(C)C` [Compound 183, 1,4-bis(6-((1,2,2,6,6-pentamethylpiperidin-4-yl)oxy)-1H-benzo[d]imidazol-2-yl)benzene]: half-maximal inhibition in the assay with r(CUG)12-MBNL1 complex (Table M) (IC50) was put at 114 µM.

As to `C[C@@H](C(=O)N(C)[C@@H](C)C(=O)N(C)[C@@H](C)C(=O)N(C)[C@@H](C)C(=O)N(C)[C@@H](C)C(=O)N(CCCCN(C)C(=O)c1ccc(-c2nc3cc(-c4ccc5[nH]c(-c6ccc(C(=O)NCCN(C)C)cc6)nc5c4)ccc3[nH]2)cc1)CC(N)=O)N(C)C(=O)c1ccc(-c2nc3cc(-c4ccc5[nH]c(-c6ccc(C(=O)NCCN(C)C)cc6)nc5c4)ccc3[nH]2)cc1` [Compound 417], the IC50 in the assay on r(CUG)12-MBNL1 complex (Table M) is 9.24 µM.

The compound `c1cc2nc(-c3ccc(-c4nc5ccc(OCCN6CCOCC6)cc5[nH]4)cc3)[nH]c2cc1OCCN1CCOCC1` [Compound 186] yielded an IC50 in the assay on r(CUG)12-MBNL1 complex (Table M) above 200 µM.

Compound `NCc1ccc(Oc2ccc3nc(-c4ccc(-c5nc6ccc(Oc7ccc(CN)cc7)cc6[nH]5)cc4)[nH]c3c2)cc1` [Compound 236, (((2,2′-(1,4-phenylene)bis(1H-benzo[d]imidazole-6,2-diyl))bis(oxy))bis(4,1-phenylene))dimethanamine] showed an IC50 in the assay on r(CUG)12-MBNL1 complex (Table M) of 62.1 µM.

The compound `CN(C)CCCOc1ccc2nc(-c3ccc(-c4nc5ccc(OCCCCO)cc5[nH]4)cc3)[nH]c2c1` [Compound 224] yielded an IC50 with r(CUG)12-MBNL1 complex (Table M) of 63.4 µM.

Compound `CN(C)CCCOc1ccc2nc(-c3ccc(-c4nc5ccc(C(=O)NCCN6CCCCC6)cc5[nH]4)cc3)[nH]c2c1` [Compound 237, 2-(4-(6-(3-(dimethylamino)propoxy)-1H-benzo[d]imidazol-2-yl)phenyl)-N-(2-(piperidin-1-yl)ethyl)-1H-benzo[d]imidazole-6-carboxamide] registered an IC50 with r(CUG)12-MBNL1 complex (Table M) of 26 µM.

With `CN(C)Cc1ccc(COc2ccc3nc(-c4ccc(-c5nc6ccc(OCc7ccc(CN(C)C)cc7)cc6[nH]5)cc4)[nH]c3c2)cc1` [Compound 217], in the assay with r(CUG)12-MBNL1 complex (Table M), the IC50 worked out at 51.9 µM.

The record behind these values is patent publication US10961202B2, “Bis-benzimidazole compounds and methods of using the same” (THE SCRIPPS RESEARCH INSTITUTE, priority 2017, dated 2021).
